Measurements reported in patent US11840686B2, “Modulation of prekallikrein (PKK) expression” (Ionis Pharmaceuticals, Inc., priority 2013, dated 2023).
Strand notation (5' to 3'): a small letter for the sugar, then the base; units joined by * are phosphorothioate-linked, units joined directly phosphodiester-linked; [ ] holds rarer units or linkages, { } end groups; capitals alone tell only the bases. e = 2'-O-(2-methoxyethyl) (MOE); k = constrained ethyl (cEt); [5mC] = 5-methylcytosine; d = 2'-deoxy (DNA)

The substances below were run on human PKK mRNA (assay: Antisense inhibition of human PKK mRNA in HepaRG cells, 1,000 nM, MOE/deoxy/cEt oligonucleotides (Example 3)). Conditions: HepaRG cells, 1,000 nM antisense oligonucleotide, Table 29.
Type: cell-based
Method in brief: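 HepaRG cells at 20,000 per well electroporated with 1,000 nM 16-mer MOE/cEt/deoxy gapmers (phosphorothioate, 5-methylcytosine). After about 24 h, PKK mRNA measured by qRT-PCR with primer probe set RTS3454, normalized to RIBOGREEN total RNA. Reported as percent inhibition versus untreated cells.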

Q: Which “% inhibition” value does the source give for “548586 (eT*e[5mC]*k[5mC]*dA*dA*d[5mC]*dT*dA*d[5mC]*dA*dG*dG*dA*k[5mC]*kT*e[5mC]; antisense) [compound 548586]” here?
A: 39%

Q: Which “% inhibition” value does the source give for “548553 (antisense e[5mC]*e[5mC]*k[5mC]*dG*dA*dA*dG*dA*dG*dT*d[5mC]*dA*dA*kG*kT*e[5mC]) [compound 548553]” here?
A: 46%

Same assay, conditions: HepaRG cells, electroporation with 1,000 nM antisense oligonucleotide, approx. 24 hours, PKK mRNA by RT-PCR (RTS3454), relative to untreated control cells; Table 25 experiment

Q: For “548189 (e[5mC]*eA*kT*dG*dA*dA*d[5mC]*dA*dT*d[5mC]*d[5mC]*dT*dA*kT*k[5mC]*e[5mC]; antisense) [compound 548189]”, which “% inhibition” value is on record?
A: 24%

Q: Which “% inhibition” value does the source give for “548186 (e[5mC]*eA*kA*d[5mC]*dA*d[5mC]*dA*d[5mC]*dA*dG*dT*d[5mC]*dA*kT*kG*eG; antisense) [compound 548186]” here?
A: 0%

Q: For “548153 (eT*eG*k[5mC]*dT*dG*dA*dA*dA*dG*d[5mC]*dG*dG*dG*k[5mC]*kT*eT; antisense) [compound 548153]”, which “% inhibition” value is on record?
A: 44%

Q: For “548208 (e[5mC]*eT*k[5mC]*dT*dG*dG*dT*d[5mC]*dA*dA*dT*d[5mC]*dT*kG*kA*e[5mC]; antisense) [compound 548208]”, which “% inhibition” value is on record?
A: 19%

Same assay, conditions: HepaRG cells, electroporation with 1,000 nM antisense oligonucleotide, approx. 24 hours, PKK mRNA by RT-PCR (RTS3454), relative to untreated control cells; Table 26 experiment

Q: For “548250 (antisense e[5mC]*eT*kT*dT*dG*dT*dG*dA*dT*dG*d[5mC]*dG*dA*kT*kT*eT) [compound 548250]”, which “% inhibition” value is on record?
A: 0%

Q: “548275 (antisense eG*eT*k[5mC]*d[5mC]*d[5mC]*dA*dA*dG*dA*d[5mC]*dA*dT*dT*k[5mC]*k[5mC]*eT) [compound 548275]” was tested. Which “% inhibition” value did it give?
A: 40%

Q: “548274 (antisense eT*eA*k[5mC]*d[5mC]*dT*dG*dA*d[5mC]*dA*dA*dG*dT*dG*kG*kT*e[5mC]) [compound 548274]” was tested. Which “% inhibition” value did it give?
A: 0%

Same assay, conditions: HepaRG cells, electroporation with 1,000 nM antisense oligonucleotide, approximately 24 hours, primer probe set RTS3454, relative to untreated control cells; experiment of Table 23

Q: How did the “% inhibition” value turn out when “547961 (eT*eT*kG*d[5mC]*dA*dG*dG*dT*dT*dA*dA*dA*dA*kG*kG*e[5mC]; antisense) [compound 547961]” was run?
A: 5%

Q: Which “% inhibition” value does the source give for “547986 (antisense e[5mC]*eA*kG*d[5mC]*dG*dA*dA*dT*d[5mC]*dA*dT*d[5mC]*dT*kT*kT*eG) [compound 547986]” here?
A: 63%

Q: How did the “% inhibition” value turn out when “547930 (eT*eG*kA*dT*dA*dG*dG*dT*dG*d[5mC]*dA*dG*dA*kT*kG*eG; antisense) [compound 547930]” was run?
A: 48%

Q: For “547967 (antisense eG*eG*k[5mC]*dA*dG*dG*dG*dT*dT*d[5mC]*dA*dG*dG*kT*kA*eA) [compound 547967]”, which “% inhibition” value is on record?
A: 25%

Q: How did the “% inhibition” value turn out when “547958 (e[5mC]*eA*kG*dG*dT*dT*dA*dA*dA*dA*dG*dG*d[5mC]*kT*kA*eT; antisense) [compound 547958]” was run?
A: 57%

Same assay, conditions: HepaRG cells, electroporation with 1,000 nM antisense oligonucleotide, approximately 24 hours, primer probe set RTS3454, relative to untreated control cells; experiment of Table 24

Q: With “548030 (e[5mC]*eT*kG*dG*dT*dG*dT*d[5mC]*d[5mC]*dT*dA*dT*dG*kA*kG*eT; antisense) [compound 548030]” as the substance, how does the “% inhibition” value read?
A: 52%

Q: “548002 (antisense eA*eA*k[5mC]*d[5mC]*dA*dG*dA*dG*d[5mC]*dT*d[5mC]*d[5mC]*d[5mC]*kT*kT*eG) [compound 548002]” was tested. Which “% inhibition” value did it give?
A: 56%

Q: For “548021 (e[5mC]*eA*k[5mC]*dT*d[5mC]*dT*d[5mC]*d[5mC]*d[5mC]*d[5mC]*dA*dA*dG*kA*kA*eG; antisense) [compound 548021]”, which “% inhibition” value is on record?
A: 0%

Same assay, conditions: PKK mRNA, HepaRG cells, 1,000 nM antisense oligonucleotide; Table 31

Q: With “548640 (antisense eG*eA*kA*dT*dG*dT*dT*dG*d[5mC]*dT*dG*dT*d[5mC]*k[5mC]*k[5mC]*eA) [compound 548640]” as the substance, how does the “% inhibition” value read?
A: 32%

Q: How did the “% inhibition” value turn out when “548643 (antisense e[5mC]*e[5mC]*kT*dA*d[5mC]*d[5mC]*dT*dA*dA*dT*dT*d[5mC]*d[5mC]*kT*k[5mC]*e[5mC]) [compound 548643]” was run?
A: 0%

Q: With “548650 (antisense e[5mC]*eT*kG*dA*dT*d[5mC]*d[5mC]*d[5mC]*dA*d[5mC]*dT*dT*dG*k[5mC]*k[5mC]*e[5mC]) [compound 548650]” as the substance, how does the “% inhibition” value read?
A: 21%

Q: For “548687 (antisense eG*eA*kA*dT*d[5mC]*dT*d[5mC]*d[5mC]*d[5mC]*dT*dG*dA*dG*kT*k[5mC]*eA) [compound 548687]”, which “% inhibition” value is on record?
A: 20%

Q: For “548617 (antisense eG*eA*kT*dT*dG*dG*dT*dG*dG*d[5mC]*dG*dG*dG*kA*kT*e[5mC]) [compound 548617]”, which “% inhibition” value is on record?
A: 44%

Q: For “548634 (antisense eG*e[5mC]*k[5mC]*dT*dT*dA*dT*dT*d[5mC]*dT*dG*dT*dG*k[5mC]*kA*eA) [compound 548634]”, which “% inhibition” value is on record?
A: 0%

Same assay, conditions: Table 19; HepaRG cells, electroporation with 1,000 nM antisense oligonucleotide, approximately 24 hours; PKK mRNA by RT-PCR (RTS3454), relative to untreated control cells

Q: Which “% inhibition” value does the source give for “548079 (e[5mC]*e[5mC]*kT*dT*d[5mC]*dT*dT*dT*dA*dT*dA*dG*d[5mC]*k[5mC]*kA*eG; antisense) [compound 548079]” here?
A: 39%

Q: How did the “% inhibition” value turn out when “548074 (e[5mC]*e[5mC]*kT*dT*dT*d[5mC]*dT*d[5mC]*d[5mC]*dT*dT*d[5mC]*dG*kA*kG*eA; antisense) [compound 548074]” was run?
A: 0%

Same assay, conditions: Table 20; HepaRG cells, electroporation with 1,000 nM antisense oligonucleotide, approximately 24 hours; PKK mRNA by RT-PCR (RTS3454), relative to untreated control cells

Q: “547917 (eA*e[5mC]*k[5mC]*d[5mC]*dT*dG*dG*d[5mC]*dA*dA*d[5mC]*dA*dT*k[5mC]*k[5mC]*eA; antisense) [compound 547917]” was tested. Which “% inhibition” value did it give?
A: 33%

Q: How did the “% inhibition” value turn out when “547910 (eA*e[5mC]*k[5mC]*dA*dA*dT*dT*dT*d[5mC]*dT*dG*dA*dA*kA*kG*eG; antisense) [compound 547910]” was run?
A: 26%

Q: Which “% inhibition” value does the source give for “547918 (eA*eA*k[5mC]*d[5mC]*d[5mC]*dT*dG*dG*d[5mC]*dA*dA*d[5mC]*dA*kT*k[5mC]*e[5mC]; antisense) [compound 547918]” here?
A: 1%

Q: With “547912 (eA*eT*k[5mC]*d[5mC]*dA*d[5mC]*dA*dT*d[5mC]*dT*dG*dA*dG*kA*kA*e[5mC]; antisense) [compound 547912]” as the substance, how does the “% inhibition” value read?
A: 23%

Same assay, conditions: Table 21 experiment; HepaRG cells, electroporation with 1,000 nM antisense oligonucleotide, approx. 24 hours; PKK mRNA by RT-PCR (RTS3454), relative to untreated control cells

Q: For “547818 (eG*eA*kT*dT*dG*dA*dA*d[5mC]*dT*dT*dG*d[5mC]*dT*kG*kG*eA; antisense) [compound 547818]”, which “% inhibition” value is on record?
A: 4%

Same assay, conditions: Table 22 experiment; HepaRG cells, electroporation with 1,000 nM antisense oligonucleotide, approx. 24 hours; PKK mRNA by RT-PCR (RTS3454), relative to untreated control cells

Q: For “547917 (eA*e[5mC]*k[5mC]*d[5mC]*dT*dG*dG*d[5mC]*dA*dA*d[5mC]*dA*dT*k[5mC]*k[5mC]*eA; antisense) [compound 547917]”, which “% inhibition” value is on record?
A: 54%

Q: “547910 (eA*e[5mC]*k[5mC]*dA*dA*dT*dT*dT*d[5mC]*dT*dG*dA*dA*kA*kG*eG; antisense) [compound 547910]” was tested. Which “% inhibition” value did it give?
A: 34%

Q: Which “% inhibition” value does the source give for “547918 (eA*eA*k[5mC]*d[5mC]*d[5mC]*dT*dG*dG*d[5mC]*dA*dA*d[5mC]*dA*kT*k[5mC]*e[5mC]; antisense) [compound 547918]” here?
A: 65%

Q: Which “% inhibition” value does the source give for “547912 (eA*eT*k[5mC]*d[5mC]*dA*d[5mC]*dA*dT*d[5mC]*dT*dG*dA*dG*kA*kA*e[5mC]; antisense) [compound 547912]” here?
A: 53%

Same assay, conditions: Table 27; HepaRG cells, 1,000 nM antisense oligonucleotide; human PKK mRNA

Q: With “548352 (antisense eG*eA*kG*dA*dG*dA*dG*dA*dT*dG*dT*dT*d[5mC]*k[5mC]*k[5mC]*eT) [compound 548352]” as the substance, how does the “% inhibition” value read?
A: 47%

Q: “548340 (antisense eG*eA*kT*dG*dA*dT*d[5mC]*d[5mC]*dT*d[5mC]*dA*d[5mC]*dA*kT*kA*e[5mC]) [compound 548340]” was tested. Which “% inhibition” value did it give?
A: 35%

Q: How did the “% inhibition” value turn out when “548319 (e[5mC]*e[5mC]*kT*d[5mC]*dA*dT*d[5mC]*dT*d[5mC]*dA*dG*dT*dA*kT*kG*eA; antisense) [compound 548319]” was run?
A: 26%

Same assay, conditions: Table 28; HepaRG cells, 1,000 nM antisense oligonucleotide; human PKK mRNA

Q: Which “% inhibition” value does the source give for “548461 (e[5mC]*e[5mC]*kT*dA*dT*dA*dT*d[5mC]*dA*d[5mC]*dT*dG*dT*kA*kA*e[5mC]; antisense) [compound 548461]” here?
A: 0%

Q: With “548468 (e[5mC]*eA*kA*d[5mC]*dA*dT*d[5mC]*dA*d[5mC]*dT*dG*dT*dA*k[5mC]*k[5mC]*eT; antisense) [compound 548468]” as the substance, how does the “% inhibition” value read?
A: 6%

Same assay, conditions: Table 30; human PKK mRNA, HepaRG cells, 1,000 nM antisense oligonucleotide

Q: Which “% inhibition” value does the source give for “548429 (antisense eT*eA*kT*dA*dA*d[5mC]*dT*dA*dT*dA*dA*d[5mC]*dA*kG*kT*eA) [compound 548429]” here?
A: 0%

Q: “548406 (eT*e[5mC]*kT*dA*dG*dA*dG*dG*d[5mC]*d[5mC]*dG*d[5mC]*d[5mC]*kT*kG*e[5mC]; antisense) [compound 548406]” was tested. Which “% inhibition” value did it give?
A: 0%

Q: Which “% inhibition” value does the source give for “548391 (eG*eT*kA*d[5mC]*dA*dT*dG*dA*d[5mC]*dT*d[5mC]*d[5mC]*dA*kG*kT*eG; antisense) [compound 548391]” here?
A: 34%

Q: With “548440 (antisense e[5mC]*e[5mC]*kT*dA*dT*dA*dA*d[5mC]*dA*dG*dT*dA*dT*k[5mC]*kA*e[5mC]) [compound 548440]” as the substance, how does the “% inhibition” value read?
A: 32%
